melting point [°C]	SMILES
95 to 97	COc1cccc(CC(=O)O)c1OCCCc1cn(-c2cccc(C(F)(F)F)n2)nc1C(C)C
224 to 226	O=C(O)C1=Cc2cc(Oc3ccc(C(F)(F)F)cc3)cc(Cl)c2OC1C(F)(F)F (stereo not given)
99 to 101	CC(C)C[C@H](NC(=O)c1cccc2c1Nc1ccccc1S2)C(=O)N[C@H]1CCOC1O (stereo not given in full)
194 to 195	CCCOc1ccc(S(=O)(=O)N2CCN(CCC)CC2)cc1-c1nc2cc3ncn(Cc4ccccc4)c3cc2c(=O)[nH]1
136 to 138	CNc1ccc(C#Cc2cccc(-c3nc(NC)nc4cc(OC)c(OC)cc34)c2)cn1
112 to 120	O=C(O)CCCN1CCN(C(=O)c2cc(C(F)(F)F)cc(C(F)(F)F)c2)[C@H](Cc2c[nH]c3ccccc23)C1
147	CP(C)(=O)C(O)C(=O)OCC(=O)c1ccccc1 (stereo not given)
237 to 238	CCC(=O)c1c(-c2ccncc2)[nH]c(-c2ccncc2)c1C
146 to 148	Oc1ccc(C(O)CNCCCn2cnc3ccccc32)cc1 (stereo not given)
134 to 140	CCCCN1CCOC2c3cccc4[nH]cc(c34)CC21 (stereo not given)
121 to 122	Cc1cc2c(c(C)c1NC(=O)OC(C)(C)C)CCO2
82 to 87	CC(=O)OCC1OC(n2c(Cl)nc3cc(Cl)c(Cl)cc32)C(O)C1O (stereo not given)
120 to 121	COC(=O)CCC(=O)c1ccc(N2CCOCC2)cc1
188	O=c1ccc2ccccc2n1O
178 to 180	CCOC(=O)C(=O)c1csc(NC(=O)CCl)n1
178 to 180	CC1(C)SCCN(S(=O)(=O)c2ccc(-c3ccc(Br)cc3)cc2)C1C(=O)O (stereo not given)
72 to 75	CC=CCn1c(C)c(C)c2cnnc(OCc3cccs3)c21
258 to 260	COc1ccc2c(c1)c1c(n2C(=O)c2ccc(F)cc2)CCC(C(=O)O)C1 (stereo not given)
62	OC(c1cc(F)cc(F)c1)c1cc(F)cc(F)c1
70 to 73	CCCCCCCCCCCc1ccc(F)c(-c2nc(-c3c(F)cccc3F)nn2C)c1

melting point [°C]	SMILES
105 to 107	N#Cc1c[nH]cc1-c1ccccc1C(F)(F)F
130 to 132	CCCCNC(=S)Nc1ccc(NNC=O)c(OC)c1
262	CC12C=CC(=O)C=C1CCC1C3CC4OCOC4(C(=O)CO)C3(C)CC(O)C12F (stereo not given)
93 to 95	CCOc1ccccc1OCC(O)CCN1C(=O)c2ccccc2C1=O (stereo not given)
273 to 276	O=C(O)c1cn(Cc2nccs2)c2cc(N3CCN(c4ccncc4)CC3)ccc2c1=O
178 to 179	C[C@H](CS(C)(=O)=O)Nc1n[nH]c2nc(Oc3ccc(F)cc3F)ncc12
153 to 156	CC1(C)C(c2cccs2)=NN=C1c1cccs1
> 250	CCOc1nc(O)cc(O)n1
85.4 to 86	COCCOCn1c2ccccc2c2c(C)c(C(=O)OC)sc21
276 to 278	COc1cccc2sc(C3(c4ccc(S(N)(=O)=O)cc4)C=C(C(F)(F)F)NN3)nc12 (stereo not given)
121 to 123	O=C(NC/C=C\COc1cc(CN2CCCCC2)ccn1)c1cn[nH]c1
210 to 211	Nc1ncccc1-c1nc2cc(C3CCCC3)cnc2n1-c1ccc(CNC(=O)c2ccccc2)cc1
> 260	O=C1c2nccc([N+](=O)[O-])c2-c2nc3ccccc3c3ccnc1c23
98 to 99	CC(=O)N[C@@H](C)CO[C@H]1CC[C@H](n2cc3ccc(OCCC4CC4)cc3n2)CC1
148 to 150	O=C1N[C@@H](Cc2ccccc2)[C@@H](COS(=O)(=O)c2ccc([N+](=O)[O-])cc2)O1
93 to 95	COc1cc(/C=C/C(=O)/C=C/c2ccc(OC(F)(F)F)cc2)ccc1O
196 to 198	OCC1OC(n2cnc3c(SCc4ccc5nc[nH]c5c4)ncnc32)C(O)C1O (stereo not given)
67 to 68	CCNC(=O)[C@@H]1C[C@H](SCc2ccc(OC)cc2)CN1
132 to 135	NC1=Nc2ccccc2CS1

SMILES	melting point [°C]
CN1C(=O)C(C)(C)N=C(c2ccccc2Cl)c2cc([N+](=O)[O-])ccc21	177 to 178

From a melting point compilation (Tetko et al.; mined from patent text by program, amines drawn as free bases though some values may be those of a salt)
